Series [1] has as its target T1, Peroxisome proliferator-activated receptor gamma (Homo sapiens) (UniProt P37231).
T1 sequence (whole entry): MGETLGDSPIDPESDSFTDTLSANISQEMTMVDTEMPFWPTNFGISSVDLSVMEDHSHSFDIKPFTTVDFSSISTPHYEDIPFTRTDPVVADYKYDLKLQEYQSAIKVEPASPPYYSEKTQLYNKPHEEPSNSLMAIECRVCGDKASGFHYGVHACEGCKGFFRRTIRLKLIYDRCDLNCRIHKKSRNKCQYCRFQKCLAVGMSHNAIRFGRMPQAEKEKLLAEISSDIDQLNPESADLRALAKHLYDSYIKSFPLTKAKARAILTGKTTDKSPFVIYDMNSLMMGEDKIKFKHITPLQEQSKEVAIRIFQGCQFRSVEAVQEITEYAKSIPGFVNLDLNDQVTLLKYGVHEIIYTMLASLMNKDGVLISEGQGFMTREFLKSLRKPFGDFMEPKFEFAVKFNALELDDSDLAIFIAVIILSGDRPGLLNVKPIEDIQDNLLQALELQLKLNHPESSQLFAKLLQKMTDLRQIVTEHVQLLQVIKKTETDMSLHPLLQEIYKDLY
In words: Transactivation of Gal4-fused human PPARgamma expressed in CHO cells co expressing pG5-Luc reporter at 10 uM. The series is classed as cell-based. As to conditions: filed as agonist.

Series [2] concerns the target T2, Peroxisome proliferator-activated receptor alpha (Homo sapiens) (UniProt Q07869).
T2 sequence (whole entry): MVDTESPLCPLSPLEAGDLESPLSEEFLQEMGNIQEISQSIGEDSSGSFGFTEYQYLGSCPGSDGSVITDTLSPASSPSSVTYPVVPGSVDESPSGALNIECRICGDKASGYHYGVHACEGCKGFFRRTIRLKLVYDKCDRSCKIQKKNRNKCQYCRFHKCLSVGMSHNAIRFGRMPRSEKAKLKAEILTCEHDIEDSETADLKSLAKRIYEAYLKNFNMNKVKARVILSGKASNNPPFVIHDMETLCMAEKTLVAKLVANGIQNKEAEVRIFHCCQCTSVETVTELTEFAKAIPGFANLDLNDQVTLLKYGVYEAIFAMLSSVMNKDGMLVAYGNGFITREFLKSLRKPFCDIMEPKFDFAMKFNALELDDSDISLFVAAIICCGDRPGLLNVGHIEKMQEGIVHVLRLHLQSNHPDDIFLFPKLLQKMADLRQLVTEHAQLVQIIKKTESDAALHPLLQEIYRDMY
Briefly: Transactivation of Gal4-fused human PPARalpha expressed in CHO cells co expressing pG5-Luc reporter at 1 uM. The format is cell-based. The conditions noted are these: filed as agonist.

In series [3] the target is T3, Peroxisome proliferator-activated receptor delta (Homo sapiens) (UniProt Q03181).
T3 sequence (whole entry): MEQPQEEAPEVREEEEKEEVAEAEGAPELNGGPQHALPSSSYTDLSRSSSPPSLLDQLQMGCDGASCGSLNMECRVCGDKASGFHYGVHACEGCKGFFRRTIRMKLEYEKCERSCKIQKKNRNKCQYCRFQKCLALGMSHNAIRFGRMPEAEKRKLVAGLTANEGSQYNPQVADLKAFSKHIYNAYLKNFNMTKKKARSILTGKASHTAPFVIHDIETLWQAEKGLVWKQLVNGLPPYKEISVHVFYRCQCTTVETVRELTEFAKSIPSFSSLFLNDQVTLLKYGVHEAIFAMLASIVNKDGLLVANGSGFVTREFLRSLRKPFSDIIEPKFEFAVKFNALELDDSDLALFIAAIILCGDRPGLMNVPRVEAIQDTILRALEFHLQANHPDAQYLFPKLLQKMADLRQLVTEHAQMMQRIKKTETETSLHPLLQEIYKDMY
In words: Transactivation of Gal4-fused human PPARdelta expressed in CHO cells co expressing pG5-Luc reporter at 10 uM. The series is classed as cell-based. The conditions noted are these: filed as agonist.

The target in series [4] is T4, Peroxisome proliferator-activated receptor delta (Mus musculus) (UniProt P35396).
T4 sequence (whole entry): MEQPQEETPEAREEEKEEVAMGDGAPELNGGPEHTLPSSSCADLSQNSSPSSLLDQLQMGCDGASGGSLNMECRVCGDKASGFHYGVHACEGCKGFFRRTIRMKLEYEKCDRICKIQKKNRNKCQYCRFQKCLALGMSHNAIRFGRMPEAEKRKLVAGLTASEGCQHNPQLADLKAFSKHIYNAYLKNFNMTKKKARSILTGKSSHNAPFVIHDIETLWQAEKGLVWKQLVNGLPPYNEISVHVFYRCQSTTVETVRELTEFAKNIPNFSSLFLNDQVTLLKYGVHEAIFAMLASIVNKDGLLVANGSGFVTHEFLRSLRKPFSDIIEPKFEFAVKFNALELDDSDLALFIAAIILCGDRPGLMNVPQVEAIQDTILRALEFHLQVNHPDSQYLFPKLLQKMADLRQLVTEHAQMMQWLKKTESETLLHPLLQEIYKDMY
Briefly: Transactivation of Gal4-fused mouse PPARdelta expressed in CHO cells co expressing pG5-Luc reporter at 1 uM. The series is classed as cell-based. The conditions noted are these: filed as agonist.

Series [5] concerns the target T2, Peroxisome proliferator-activated receptor alpha (Homo sapiens). Briefly: Transactivation of Gal4-fused human PPARalpha expressed in CHO cells co expressing pG5-Luc reporter at 10 uM. As to conditions: filed as agonist. The series is classed as cell-based.
Series [6] has as its target T5, Peroxisome proliferator-activated receptor gamma (Homo sapiens, UniProt P37231).
T5 sequence (P37231 whole entry): T1 sequence (whole entry)
The series is classed as cell-based, CHO.

The target in series [7] is T6, Peroxisome proliferator-activated receptor delta (Homo sapiens, UniProt Q03181).
T6 sequence (Q03181 whole entry): T3 sequence (whole entry)
Briefly: Transactivation of Gal4-fused human PPARdelta expressed in CHO cells co expressing pG5-Luc reporter. The format is cell-based.

Series [8] concerns the target T7, Peroxisome proliferator-activated receptor delta (Mus musculus, UniProt P35396).
T7 sequence (P35396 whole entry): T4 sequence (whole entry)
Briefly: Transactivation of Gal4-fused mouse PPARdelta expressed in CHO cells co expressing pG5-Luc reporter. The format is cell-based.

A further series concerns the target CYP3A4 (Homo sapiens, UniProt P08684). Briefly: Inhibition of CYP3A4 (unknown origin) assessed as residual activity at 20 uM by enzyme assay relative to control. As to conditions: read-out: Activity. The format is ADME.
Series [9] deals with Mus musculus. In words: Anti-diabetic activity in […] mouse assessed as glucose level at 30 mg/kg, po for 8 days (reference value: 737 +/- 52 mg/dL). The series is classed as functional. As to conditions: time 8 day.
The nature of series [10]: Metabolic stability in human liver microsomes assessed as parent compound remaining after 0.5 hrs relative to control. The conditions noted are these: read-out: Stability. The format is ADME, Microsome. For orientation: Microsomes from liver hold many membrane-bound enzymes, among them those of drug oxidation.
Series [11] deals with Mus musculus. Briefly: Anti-obesity activity in […] mouse assessed as TG level at 30 mg/kg, po for 8 days (reference value: 162.8 +/- 21.4 mg/dL). The format is functional. The conditions noted are these: time 8 day.
A short description of series [12]: Total clearance in rat dosed as mixture. The series is classed as ADME, organism-based. The conditions noted are these: in vivo.
The target of a further series is CYP2D6 (Homo sapiens, UniProt P10635). Briefly: Inhibition of CYP2D6 (unknown origin) assessed as residual activity at 20 uM by enzyme assay relative to control. The format is ADME. As to conditions: read-out: Activity.
Sequence of CYP2D6 (P10635 whole entry): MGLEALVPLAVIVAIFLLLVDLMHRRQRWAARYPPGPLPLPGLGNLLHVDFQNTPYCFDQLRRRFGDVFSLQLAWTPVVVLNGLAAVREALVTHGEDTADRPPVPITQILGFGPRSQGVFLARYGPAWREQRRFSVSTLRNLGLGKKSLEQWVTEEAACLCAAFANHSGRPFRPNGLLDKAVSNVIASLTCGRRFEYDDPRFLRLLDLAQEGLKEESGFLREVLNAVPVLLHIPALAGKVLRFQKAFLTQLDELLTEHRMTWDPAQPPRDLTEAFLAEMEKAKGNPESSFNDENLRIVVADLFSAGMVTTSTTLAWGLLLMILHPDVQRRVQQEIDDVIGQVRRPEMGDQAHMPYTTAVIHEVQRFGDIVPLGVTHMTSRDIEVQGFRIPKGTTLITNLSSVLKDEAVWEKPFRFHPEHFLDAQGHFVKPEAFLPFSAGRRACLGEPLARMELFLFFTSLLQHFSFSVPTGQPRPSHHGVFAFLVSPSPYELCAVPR
In series [13] the target is T8, Peroxisome proliferator-activated receptor alpha (Homo sapiens, UniProt Q07869).
T8 sequence (Q07869 whole entry): T2 sequence (whole entry)
In words: Transactivation of Gal4-fused human PPARalpha expressed in CHO cells co expressing pG5-Luc reporter. The format is cell-based.

The target of another series is T9, CYP1A2 (Homo sapiens, UniProt P05177).
T9 sequence (P05177 whole entry): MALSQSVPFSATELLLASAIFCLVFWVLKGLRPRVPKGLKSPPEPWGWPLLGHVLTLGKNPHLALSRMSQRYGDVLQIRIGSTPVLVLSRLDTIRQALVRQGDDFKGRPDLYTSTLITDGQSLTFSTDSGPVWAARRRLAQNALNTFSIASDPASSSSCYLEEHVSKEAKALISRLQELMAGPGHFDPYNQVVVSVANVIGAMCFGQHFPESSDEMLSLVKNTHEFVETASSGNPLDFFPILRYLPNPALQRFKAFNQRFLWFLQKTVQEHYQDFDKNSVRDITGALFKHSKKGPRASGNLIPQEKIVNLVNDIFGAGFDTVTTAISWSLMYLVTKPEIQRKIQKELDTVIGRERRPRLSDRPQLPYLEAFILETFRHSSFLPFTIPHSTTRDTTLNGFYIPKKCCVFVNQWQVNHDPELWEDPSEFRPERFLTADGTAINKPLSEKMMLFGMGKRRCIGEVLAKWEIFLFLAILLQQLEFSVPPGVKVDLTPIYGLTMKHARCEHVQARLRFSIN
In words: Inhibition of CYP1A2 (unknown origin) assessed as residual activity at 20 uM by enzyme assay relative to control. As to conditions: read-out: Activity. The format is ADME.

Series [14] can be described thus: Half life in rat dosed as mixture. The conditions noted are these: in vivo. The format is ADME, organism-based.
The nature of series [15]: Metabolic stability in rat liver microsomes assessed as parent compound remaining after 0.5 hrs relative to control. The format is ADME, Microsome. As to conditions: read-out: Stability.
The species entered for a further series is Homo sapiens. In words: Selectivity index, ratio of EC50 for human PPARalpha to EC50 for human PPARdelta.
A short description of series [16]: Kinetic solubility of compound at pH 6.8 by HPLC analysis. The conditions noted are these: buffer, read-out: Kinetic_solubility. The format is physicochemical.
For series [17], the target named is PPAR delta/gamma (Homo sapiens) (UniProt P37231+Q03181). Briefly: Selectivity index, ratio of EC50 for human PPAgamma to EC50 for human PPARdelta. The format is protein assay.
For a further series, the target named is CYP2C9 (Homo sapiens, UniProt P11712). Briefly: Inhibition of CYP2C9 (unknown origin) assessed as residual activity at 20 uM by enzyme assay relative to control. The format is ADME. The conditions noted are these: read-out: Activity.
Sequence of CYP2C9 (P11712 whole entry): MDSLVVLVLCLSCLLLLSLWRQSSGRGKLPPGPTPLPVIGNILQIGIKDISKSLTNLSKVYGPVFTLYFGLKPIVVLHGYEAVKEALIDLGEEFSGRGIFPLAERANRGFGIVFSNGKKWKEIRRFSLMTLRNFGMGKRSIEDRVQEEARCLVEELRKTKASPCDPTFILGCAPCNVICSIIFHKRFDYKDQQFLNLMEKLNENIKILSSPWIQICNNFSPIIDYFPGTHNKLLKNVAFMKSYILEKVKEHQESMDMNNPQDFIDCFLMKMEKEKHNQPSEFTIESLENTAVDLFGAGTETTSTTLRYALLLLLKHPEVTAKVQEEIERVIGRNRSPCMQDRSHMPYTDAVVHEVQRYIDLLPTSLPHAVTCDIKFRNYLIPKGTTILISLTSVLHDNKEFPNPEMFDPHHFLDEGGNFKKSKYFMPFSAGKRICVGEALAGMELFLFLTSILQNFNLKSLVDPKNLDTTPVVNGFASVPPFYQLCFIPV
The test system of series [18] is Mus musculus. In words: Anti-obesity activity in […] mouse assessed as HDL cholesterol level at 30 mg/kg, po for 8 days (reference value: 103.5 +/- 3.2 %). The series is classed as functional. As to conditions: time 8 day.

Converted amounts (≈) assume the structure as drawn. Bounds are passed on as bounds.

Sequence of CYP3A4 (P08684 whole entry): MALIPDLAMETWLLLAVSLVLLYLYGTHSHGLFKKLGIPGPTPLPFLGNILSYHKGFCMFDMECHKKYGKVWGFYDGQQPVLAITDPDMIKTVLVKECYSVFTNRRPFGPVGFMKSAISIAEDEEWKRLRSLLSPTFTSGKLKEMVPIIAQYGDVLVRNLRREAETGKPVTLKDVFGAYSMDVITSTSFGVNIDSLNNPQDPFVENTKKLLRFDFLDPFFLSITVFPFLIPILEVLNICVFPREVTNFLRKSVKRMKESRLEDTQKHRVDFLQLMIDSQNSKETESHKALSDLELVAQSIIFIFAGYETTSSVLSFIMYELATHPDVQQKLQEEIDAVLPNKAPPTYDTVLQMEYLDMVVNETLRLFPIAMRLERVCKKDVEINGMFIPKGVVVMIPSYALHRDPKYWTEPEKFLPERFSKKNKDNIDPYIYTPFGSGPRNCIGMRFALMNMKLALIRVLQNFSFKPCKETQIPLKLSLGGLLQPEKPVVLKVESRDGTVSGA

On to `O=C(O)CCC(=O)OCCC1CCN(c2nc3ccc(Cl)cc3s2)CC1`, for which the fold change (FC) in [1] came out at 1.5; in series [2], 2.4; in series [3], 11; in series [4] it was 2; in [5], 8.6.

What is called EC50 is the concentration that produces a half-maximal response. Low readings indicate higher potency in that assay, high ones lower potency in that assay. Turning to `Cc1ccc(OCCC2CCN(c3nc4ccc(Cl)cc4s3)CC2)cc1CC(=O)O`, the EC50 in [6] worked out at 980 nM; in series [7], 110 nM; in [8], 830 nM.

In general, clearance refers to the volume of plasma or blood freed of the substance per unit of time. For orientation: half-life means the time needed for the level to fall by half in the phase considered. As to `Cc1ccc(CC(=O)O)cc1OCCC1CCN(c2nc3ccc(Cl)cc3s2)CC1`, the activity at 20 µM is more than 99% at CYP3A4, 94% on CYP2D6, 92% on CYP1A2 and 58% at CYP2C9. Besides, the Activity in the series with Mus musculus [9] was found to be 415 mg/dL; with Mus musculus [11], 63.9 mg/dL; in the series on Mus musculus [18] it was 118%. In addition, the values for the remaining at 0.5 h in series [10] and in series [15] were 96% and 101%, respectively. Further, in [12], the clearance was found to be 14.3 mL/min/kg. In addition, the EC50 in [13] is 637 nM; in [6] it was 542 nM; in series [7] it was 16.4 nM; in [8], 71.2 nM. For the same compound, in series [14], the half-life was 1.8 h. Also, the Ratio EC50 in the series filed under Homo sapiens stood at 38; in [17], 33. The solubility kinetic in series [16] was determined as 21.8 µM (≈ 9.7 µg/mL).

For `Cc1cc(SCc2sc(-c3ccc(C(F)(F)F)cc3)nc2C)ccc1OCC(=O)O` [GW501516], the Activity with Mus musculus [9] came to 493 mg/dL; with Mus musculus [11] it was 82.4 mg/dL; in the series on Mus musculus [18] it was 132.9%. Moreover, the fold change (FC) in series [2] came out at 3.1; in [4], 30.4.

As to `CCc1ccc(CC(=O)O)cc1OCCC1CCN(c2nc3ccc(Cl)cc3s2)CC1`, the EC50 in series [13] was 3600 nM; in [6], 680 nM; in [7], 120 nM; in series [8], 330 nM.

In the case of `O=C(O)Cc1cccc(OCC2CCN(c3nc4ccc(Cl)cc4s3)CC2)c1`, the fold change (FC) in series [2] is 2.5; in [4] it was 7.

For the compound `Cc1cc(CC(=O)O)cc(OCCC2CCN(c3nc4ccc(Cl)cc4s3)CC2)c1`, the EC50 was determined as 955 nM in series [13], 1070 nM in series [6], 92.9 nM in [7] and 151 nM in [8].

With `O=C(O)c1cccc(OCCC2CCN(c3nc4ccc(Cl)cc4s3)CC2)c1`, the fold change (FC) in series [2] was 7.5; in series [4] it was 1.4.

For `O=C(O)Cc1cccc(OCCC2CCN(c3nc4ccc(Cl)cc4s3)CC2)c1`, the figures for the EC50 in series [13], in series [7] and in series [8] were 2220 nM, 263 nM and 1060 nM, respectively.

In [2], `CN(CCOc1ccc(CC2SC(=O)NC2=O)cc1)c1ccccn1` (stereo not drawn) showed a fold change (FC) of 1.2.

Take `O=C(O)CCc1cccc(OCCC2CCN(c3nc4ccc(Cl)cc4s3)CC2)c1`: the fold change (FC) in series [2] was 1.5; in [4] it was 2.2.

For the compound `O=C(O)CCC(=O)OCCN1CCN(c2nc3ccc(Cl)cc3s2)CC1`, the fold change (FC) in series [1] worked out at 1.5; in series [2], 1.5; in [3], 2.8; in series [5], 3.
